Laboratory results from a compilation of properties of binary mixtures (doi:10.1016/j.fluid.2015.01.011).

Test: xn = mol fraction of the nth substance listed
Conditions: 100 kPa

[N-]=C=S.[NH4+] + CC[n+]1ccn(C)c1.N#C[S-]
Conditions | electrical conductivity, x1 = 0.039 [S/m] | electrical conductivity, x1 = 0.099 [S/m] | electrical conductivity, x1 = 0.1395 [S/m] | viscosity, x1 = 0.039 [mPa·s] | viscosity, x1 = 0.099 [mPa·s] | viscosity, x1 = 0.1395 [mPa·s]
298.15 K | 2.07 | 2.05 | 1.86 | 25.9 | 29.9 | 31.6
303.15 K | 2.38 | 2.37 | 2.17 | 22 | 25.2 | 26.5
308.15 K | 2.72 | 2.72 | 2.5 | 18.84 | 21.4 | 22.5
313.15 K | – | 3.11 | 2.88 | – | 18.21 | 19.1
318.15 K | – | 3.52 | – | – | 16 | –
323.15 K | 3.97 | 3.98 | – | 12.59 | 14.03 | –
328.15 K | – | – | – | – | 12.4 | 12.88
333.15 K | – | – | – | 9.85 | – | 11.33
338.15 K | – | – | – | 9.01 | 9.9 | 10.24
343.15 K | – | – | – | 8.16 | 8.91 | –
348.15 K | – | – | – | 7.42 | – | 8.32
353.15 K | – | – | – | 6.68 | – | –

CC[n+]1ccn(C)c1.N#C[S-] + CCOS(=O)(=O)[O-].CC[n+]1ccn(C)c1
Conditions | electrical conductivity [S/m] | viscosity [mPa·s]
298.15 K, x1 = 0.199 | 0.421 | 96.4
298.15 K, x1 = 0.32 | 0.569 | 83.5
298.15 K, x1 = 0.429 | 0.745 | 65.3
298.15 K, x1 = 0.899 | 1.84 | 27.8
298.15 K, x1 = 0.9505 | 2.1 | 25
298.15 K, x1 = 1 | 2.32 | 23.1
303.15 K, x1 = 0.199 | 0.512 | 76.1
303.15 K, x1 = 0.32 | 0.696 | 66.5
303.15 K, x1 = 0.429 | 0.809 | 52.7
303.15 K, x1 = 0.67 | 1.38 | 35.8
303.15 K, x1 = 0.899 | 2.15 | 23.5
303.15 K, x1 = 0.9505 | 2.29 | 21.2
303.15 K, x1 = 1 | 2.67 | 19.68
308.15 K, x1 = 0.32 | 0.842 | 53.9
308.15 K, x1 = 0.429 | 1.09 | 43.1
308.15 K, x1 = 0.67 | 1.62 | 30
308.15 K, x1 = 0.899 | 2.5 | 20.07
308.15 K, x1 = 0.9505 | 2.79 | 18.2
308.15 K, x1 = 1 | 3.06 | 16.97
313.15 K, x1 = 0.199 | 0.733 | 61.2
313.15 K, x1 = 0.32 | 1 | 53.9
313.15 K, x1 = 0.67 | 1.88 | 30
313.15 K, x1 = 0.899 | 2.85 | 20.07
313.15 K, x1 = 0.9505 | 3.18 | 18.2
313.15 K, x1 = 1 | 3.47 | 16.97
318.15 K, x1 = 0.199 | 0.861 | 50.1
318.15 K, x1 = 0.32 | 1.19 | 44.4
318.15 K, x1 = 0.429 | 1.29 | –
318.15 K, x1 = 0.67 | 2.18 | –
318.15 K, x1 = 0.899 | 3.25 | –
318.15 K, x1 = 1 | 3.92 | 14.54
323.15 K, x1 = 0.199 | 1.02 | 34.7
323.15 K, x1 = 0.32 | 1.38 | 31.1
323.15 K, x1 = 0.429 | 1.52 | 25.7
323.15 K, x1 = 0.67 | 2.49 | 18.78
323.15 K, x1 = 0.9505 | 4.04 | 12.2
323.15 K, x1 = 1 | 4.38 | 11.49
328.15 K, x1 = 0.199 | – | 29.5
328.15 K, x1 = 0.32 | – | 26.6
328.15 K, x1 = 0.67 | – | 16.38
328.15 K, x1 = 0.899 | – | 11.78
328.15 K, x1 = 0.9505 | – | 10.86
328.15 K, x1 = 1 | – | 10.25
333.15 K, x1 = 0.199 | – | 25.3
333.15 K, x1 = 0.429 | – | 19.14
333.15 K, x1 = 0.67 | – | 14.35
333.15 K, x1 = 0.899 | – | 10.37
333.15 K, x1 = 0.9505 | – | 9.56
333.15 K, x1 = 1 | – | 9.02
338.15 K, x1 = 0.199 | – | 21.85
338.15 K, x1 = 0.32 | – | 19.89
338.15 K, x1 = 0.429 | – | 16.74
338.15 K, x1 = 0.67 | – | 12.76
338.15 K, x1 = 0.9505 | – | 8.75
338.15 K, x1 = 1 | – | 8.3
343.15 K, x1 = 0.199 | – | 19.06
343.15 K, x1 = 0.67 | – | 11.37
343.15 K, x1 = 0.899 | – | 8.53
343.15 K, x1 = 0.9505 | – | 7.92
343.15 K, x1 = 1 | – | 7.53
348.15 K, x1 = 0.199 | – | 16.75
348.15 K, x1 = 0.32 | – | 15.38
348.15 K, x1 = 0.429 | – | 13.08
348.15 K, x1 = 0.67 | – | 10.21
348.15 K, x1 = 0.899 | – | 7.74
348.15 K, x1 = 1 | – | 6.87
353.15 K, x1 = 0.199 | – | 14.87
353.15 K, x1 = 0.32 | – | 13.71
353.15 K, x1 = 0.429 | – | 11.68
353.15 K, x1 = 0.67 | – | 9.16
353.15 K, x1 = 0.899 | – | 6.96
353.15 K, x1 = 0.9505 | – | 6.48
353.15 K, x1 = 1 | – | 6.17
